Measurements as given in patent US10570125B2, “(Cyano-dimethyl-methyl)-isoxazoles and -[1,3,4]thiadiazoles” (Centrexion Therapeutics Corporation, priority 2013, dated 2020).

Legend:
[1] = molecular target: human CB1R (Homo sapiens (Human), UniProt P21554); assay: CB1 cAMP (assay 2); assay type: cell-based; conditions: CHO cells expressing human CB1R; inhibition of forskolin-stimulated cAMP
[2] = molecular target: human MDR1 P-gp (Homo sapiens (Human), UniProt P08183); assay: MDCK assay: efflux in MDCK-MDR1 cell monolayers (assay 3); assay type: in vitro ADME; conditions: pH 7.4, 37° C.
Method: C. Assessment of Efflux in Madin-Darby Canine Kidney Cells Transfected with the Human MDR1 Gene (MDCK Assay) (Assay 3)
Apparent permeability coefficients (PE) of the compounds across the MDCK-MDR1 cell monolayers are measured (pH 7.4, 37° C.) in apical-to-basal (AB) and basal-to-apical (BA) transport direction. AB permeability (PEAB) represents drug absorption from the blood into the brain and BA permeability (PEBA) drug efflux from the brain back into the blood via both passive permeability as well as active transport mechanisms mediated by efflux and uptake transporters that are expressed on the MDCK-MDR1 cells, predominantly by the overexpressed human MDR1 P-gp. The compounds are assigned to permeability/absorption classes by comparison of the AB permeabilities with the AB permeabilities of reference compounds with known in vitro permeability and oral absorption in the human. Identical or similar permeabilities in both transport directions indicate passive permeation, vectorial permeability points to additional active transport mechanisms. Higher PEBA than PEAB indicates the involvement of active efflux mediated by MDR1 P-gp. Active transport is concentration-dependently saturable. MDCK-MDR1 cells (1-2×10e5 cells/1 cm2 area) are seeded on filter inserts (Costar transwell polycarbonate or PET filters, 0.4 μm pore size) and cultured (DMEM) for 7 days. […]

human CB1R, sequence (P21554 whole entry): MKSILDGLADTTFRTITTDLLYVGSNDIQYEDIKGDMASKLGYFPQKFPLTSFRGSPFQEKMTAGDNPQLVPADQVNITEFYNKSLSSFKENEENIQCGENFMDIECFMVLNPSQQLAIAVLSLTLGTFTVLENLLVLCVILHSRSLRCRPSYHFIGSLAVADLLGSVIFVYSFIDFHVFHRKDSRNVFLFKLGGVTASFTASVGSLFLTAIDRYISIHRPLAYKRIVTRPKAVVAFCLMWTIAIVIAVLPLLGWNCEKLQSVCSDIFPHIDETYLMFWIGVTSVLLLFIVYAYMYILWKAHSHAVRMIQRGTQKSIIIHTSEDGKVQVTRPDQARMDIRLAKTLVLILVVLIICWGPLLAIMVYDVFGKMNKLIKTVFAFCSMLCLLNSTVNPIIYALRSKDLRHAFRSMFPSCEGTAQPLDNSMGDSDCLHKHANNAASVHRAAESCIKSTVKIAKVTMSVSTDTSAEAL
human MDR1 P-gp, sequence (P08183 whole entry): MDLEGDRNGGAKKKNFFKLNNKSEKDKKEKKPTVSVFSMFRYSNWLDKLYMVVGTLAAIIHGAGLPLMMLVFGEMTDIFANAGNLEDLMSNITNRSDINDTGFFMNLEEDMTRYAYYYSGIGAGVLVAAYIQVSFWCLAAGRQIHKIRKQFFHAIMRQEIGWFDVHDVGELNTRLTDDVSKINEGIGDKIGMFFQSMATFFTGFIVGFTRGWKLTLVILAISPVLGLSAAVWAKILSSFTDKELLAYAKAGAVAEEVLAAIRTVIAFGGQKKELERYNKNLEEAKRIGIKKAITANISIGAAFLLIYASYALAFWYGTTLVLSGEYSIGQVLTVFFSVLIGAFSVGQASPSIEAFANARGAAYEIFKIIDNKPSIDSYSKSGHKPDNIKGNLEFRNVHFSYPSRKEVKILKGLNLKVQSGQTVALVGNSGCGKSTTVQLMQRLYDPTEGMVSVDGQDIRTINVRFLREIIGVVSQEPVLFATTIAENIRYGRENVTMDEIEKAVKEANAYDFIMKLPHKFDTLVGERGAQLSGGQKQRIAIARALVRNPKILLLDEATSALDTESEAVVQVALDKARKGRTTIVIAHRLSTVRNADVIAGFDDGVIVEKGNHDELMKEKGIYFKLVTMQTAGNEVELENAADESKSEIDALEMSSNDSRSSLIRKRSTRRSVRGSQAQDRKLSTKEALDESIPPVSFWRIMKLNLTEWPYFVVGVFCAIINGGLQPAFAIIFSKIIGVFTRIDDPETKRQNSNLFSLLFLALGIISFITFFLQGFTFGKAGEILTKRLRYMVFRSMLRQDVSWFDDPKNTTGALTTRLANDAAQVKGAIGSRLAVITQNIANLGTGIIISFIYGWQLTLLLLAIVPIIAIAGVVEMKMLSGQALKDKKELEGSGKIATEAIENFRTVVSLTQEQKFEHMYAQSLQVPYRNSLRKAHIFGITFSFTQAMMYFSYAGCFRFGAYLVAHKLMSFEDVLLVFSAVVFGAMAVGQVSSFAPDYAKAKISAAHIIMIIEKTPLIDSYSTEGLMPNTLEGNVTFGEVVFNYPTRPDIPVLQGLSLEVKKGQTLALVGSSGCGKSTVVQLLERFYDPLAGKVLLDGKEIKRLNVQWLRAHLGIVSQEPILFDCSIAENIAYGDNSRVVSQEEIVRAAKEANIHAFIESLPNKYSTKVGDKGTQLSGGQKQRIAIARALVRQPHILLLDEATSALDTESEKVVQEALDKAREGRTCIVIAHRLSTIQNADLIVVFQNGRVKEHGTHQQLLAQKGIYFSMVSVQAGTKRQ

SMILES | EC50 [1] [µM] | efflux ratio ([2]; dog, read-out: MDCK efflux ratio (BA/AB)) | MDCK efflux ratio (BA/AB) [2]
CC(C)(CO)c1cc(NC(=O)C(C)(C)S(=O)(=O)CCCC(F)(F)F)on1 [Example 7 WO2010036630] | 28 | 6.9 | –
CC(C)(O)c1cc(NC(=O)C(C)(C)S(=O)(=O)CCCC(F)(F)F)on1 [Example 134 in WO2010036630] | 26 | – | 3.2
